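Following 48 hours of exposure in 96-well plates, responses at five concentrations were used to interpolate endpoints linearly. The concentration for 50% growth inhibition is given as GI50. The concentration for full growth arrest is given as TGI.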
Key:
Assay in all cases: NCI tumour cell line growth inhibition, 48 h
[1] = test system: NCI/ADR-RES ovarian
[2] = test system: U251 CNS
[3] = test system: OVCAR-4 ovarian
[4] = test system: SNB-19 CNS
[5] = test system: HCT-15 colon
[6] = test system: ACHN renal
[7] = test system: CAKI-1 renal
[8] = test system: SF-295 CNS
[9] = test system: A549 NSCLC
[10] = test system: MDA-MB-231 breast
[11] = test system: SW-620 colon
[12] = test system: UACC-62 melanoma
[13] = test system: MCF7 breast
[14] = test system: 786-0 renal
[15] = test system: SF-539 CNS
[16] = test system: DU-145 prostate
[17] = test system: HOP-62 NSCLC
[18] = test system: HL-60(TB) leukemia
[19] = test system: NCI-H522 lung
[20] = test system: SN12C renal
[21] = test system: HCT-116 colon
[22] = test system: M14 melanoma
[23] = test system: RPMI-8226 leukemia
[24] = test system: HCC-2998 colon
[25] = test system: HS 578T breast
[26] = test system: COLO 205 colon
[27] = test system: BT-549 breast
[28] = test system: EKVX NSCLC

`O=C(CSc1nc2sc3c(c2c(=O)n1-c1ccc(Cl)cc1)CCCC3)NNC(=O)Nc1cccc(C(F)(F)F)c1` showed a GI50 [1] of 3.12 µM, a TGI [1] of 14 µM and a GI50 [2] of 2 µM. For the same compound, the TGI [2] was 4.39 µM, the GI50 [3] was 2.44 µM and the TGI [3] was 6.78 µM. It also gave a GI50 [4] of 3.97 µM, a TGI [4] of 77.3 µM and a GI50 [5] of 3.05 µM. It also gave a TGI [5] of 11.5 µM, a GI50 [6] of 3.67 µM and a TGI [6] of 14.9 µM. The GI50 [7] was 2.31 µM, the TGI [7] was 7.14 µM and the GI50 [8] was 2.28 µM. For the same compound, the TGI [8] was 6.16 µM, the GI50 [9] was 2.97 µM and the TGI [9] was 12.3 µM. It also gave a GI50 [10] of 2.76 µM, a TGI [10] of 8.65 µM and a GI50 [11] of 3.49 µM. For the same compound, the TGI [11] was 15 µM, the GI50 [12] was 2.38 µM and the TGI [12] was 7.4 µM. For the same compound, the GI50 [13] was 2.4 µM, the TGI [13] was 10 µM and the GI50 [14] was 2.7 µM. It also gave a TGI [14] of 9.79 µM, a GI50 [15] of 3.46 µM and a TGI [15] of 11.9 µM. For the same compound, the GI50 [16] was 4.12 µM, the TGI [16] was greater than 100 µM and the GI50 [17] was 3.3 µM. The TGI [17] was 13.5 µM, the GI50 [18] was 2.39 µM and the TGI [18] was 6.57 µM. For the same compound, the GI50 [19] was 1.81 µM, the TGI [19] was 4.51 µM and the GI50 [20] was 2.83 µM. It also gave a TGI [20] of 8.44 µM, a GI50 [21] of 1.98 µM and a TGI [21] of 4.01 µM. For the same compound, the GI50 [22] was 3.2 µM, the TGI [22] was 11.3 µM and the GI50 [23] was 2.87 µM. The TGI [23] was greater than 100 µM, the GI50 [24] was 2.99 µM and the TGI [24] was 11.9 µM. For the same compound, the GI50 [25] was 3.1 µM, the TGI [25] was 21.6 µM and the GI50 [26] was 1.92 µM. It also gave a TGI [26] of 3.52 µM, a GI50 [27] of 2.02 µM and a TGI [27] of 5.9 µM. It also gave a GI50 [28] of 2.45 µM and a TGI [28] of 8.32 µM.

From PubChem BioAssay (NCI)
